Consider six molecules from ChEMBL document CHEMBL5365512, “Hetero-tricyclic Compounds as KRAS Inhibitors for Treating Cancer” (ACS Med Chem Lett, 2023).

The target in experiment [1] is GTPase KRas (Homo sapiens, UniProt P01116, G12V). Description: Inhibition of KRAS G12V mutant (unknown origin) assessed as inhibition of SOS1 mediated nucleotide exchange of bodipy-GDP for GppNHp incubated for 3 hrs by fluorescence based analysis.
In experiment [2] the target is T1, GTPase KRas (Homo sapiens, UniProt P01116, G12D). The experiment in a line: Inhibition of KRAS G12D mutant (unknown origin) assessed as inhibition of SOS1 mediated nucleotide exchange of bodipy-GDP for GppNHp incubated for 4 hrs by fluorescence based analysis.
T1 sequence (P01116 whole entry G12D): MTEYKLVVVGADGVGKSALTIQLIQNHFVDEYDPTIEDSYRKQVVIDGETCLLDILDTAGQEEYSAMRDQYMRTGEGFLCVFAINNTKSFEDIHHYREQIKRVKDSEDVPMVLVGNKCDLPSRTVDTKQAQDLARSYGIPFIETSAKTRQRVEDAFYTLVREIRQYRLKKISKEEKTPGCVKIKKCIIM
Experiment [3] addresses T1, GTPase KRas. Description: Inhibition of KRAS G12D mutant in human HPAF-II cells assessed as reduction in ERK phosphorylation by Western blot analysis. The format is cell-based.

Some results are limits rather than exact numbers.

Chain of GTPase KRas (Homo sapiens, UniProt P01116, G12V) (P01116 whole entry G12V): as the sequence (P01116 whole entry G12D) above, with D12V counted along it

As a reminder, the IC50 is the concentration that gives 50% inhibition. Consider `C[C@H](Oc1nc2c(F)c(-c3cc(O)cc4ccc(F)cc34)c(CCC#N)cc2c2c1NC(=O)CN2C1C2CNC1C2)[C@@H]1CCCN1C` (some centres not stated), for which the IC50 at GTPase KRas [1], on GTPase KRas [2] and on GTPase KRas [3] was at most 100 nM in each case.

In the case of `Cc1cc2c(nc(O[C@@H](C)[C@H]3CCCN3C)c3c(=O)ccn([C@@H]4[C@@H]5CN[C@H]4C5)c32)c(F)c1-c1cccc2c1C(C#N)CCC2` (some centres not stated), the IC50 on GTPase KRas [1], on GTPase KRas [2] and on GTPase KRas [3] was at most 100 nM each time.

On to `C[C@H](Oc1nc2c(F)c(-c3c[nH]c4ccccc34)c(CCC#N)cc2c2c1NC(=O)CN2C1C2CNC1C2)[C@@H]1CCCN1C` (some centres not stated), for which the IC50 at GTPase KRas [1], on GTPase KRas [2] and at GTPase KRas [3] was at most 100 nM in each case.

As to `C[C@H](Oc1nc2c(F)c(-c3cccc(Cl)c3Cl)c(CCC#N)cc2c2c1c(=O)c(N1CCCC1=O)cn2[C@@H]1[C@@H]2CN[C@H]1C2)[C@H]1CCCN1C`, the IC50 on GTPase KRas [1] and at GTPase KRas [2] was at most 100 nM in each case.

`C[C@H](Oc1nc2c(F)c(-c3cccc4ccc(F)cc34)c(CCC#N)cc2c2c1NC(=O)CN2C1C2CNC1C2)[C@@H]1CCCN1C` (some centres not stated): the IC50 on GTPase KRas [1], on GTPase KRas [2] and at GTPase KRas [3] was at most 100 nM in each case.

In the case of `C[C@@H](Oc1nc2c(F)c(-c3cc(O)cc4ccccc34)c(CCC#N)cc2c2c1CCCN2C1C2CNC1C2)[C@H]1CCCN1C` (some centres not stated), the IC50 at GTPase KRas [1], at GTPase KRas [2] and on GTPase KRas [3] was at most 100 nM each time.
